Assay results reported in patent publication US10968190B2, “Processes for preparing oxathiazin-like compounds” (GEISTLICH PHARMA AG, priority 2014, dated 2021).
In brackets after ≈: the same amount, converted by molar mass. Like-named read-outs stand apart in the source and are kept apart here.

Assays:
[1] = test system: cancers identified herein; assay: Administration to patients having cancers (Example 5); type: in vivo; conditions: Example 5, present tense
Experimental: Each of these compounds is administered with Vitamin D3, a derivative, metabolite or analog thereof and the combination is found to increase the anti-tumor effects of the compounds.

[2] = test system: human glioma cell line LN-229; assay: Cytotoxicity assay in LN-229 cells (crystal violet); type: cell-based; conditions: for OD (absorbance at 540 nm; high values = high cell viability): 24 h
Experimental: Cell lines: The human glioma cell line LN-229 was used as described previously (Rodak et al. 2005) as well as the human colon adenocarcinoma cell line SW480.
Cytotoxicity assay: Dissociated LN-229 cells were seeded into 96-well plates at a density of 10^4 cells per well in 100 μl of culture medium. […] Triplicate cultures were prepared for each sample. After 24 h of incubation at […], the remaining adherent viable cells were stained using crystal violet as described (Rodack et al. 2005). Cell viability was determined by measuring the absorbancy at 540 nm. The results are expressed as killing rate given by the difference between 100% of cells and percentage of cells surviving. EC50 values correspond to the concentration inducing 50% cell death.

[3] = test system: cancer stem cells (CSC) derived from four glioblastoma patients; assay: Cytotoxicity in cancer stem cells from glioblastoma patients; type: cell-based, human; conditions: for Cytotoxicity EC50, Mean ± SD: mean of CSCs from four glioblastoma patients
Experimental: Tissue samples from high grade gliomas WHO grade IV from newly diagnosed patients (medium age of 54±10 years) were minced mechanically, digested enzymatically and the dissociated cells were filtered. The isolated tumor cells were cultured as bulk cells. Cancer Stem Cells (CSCs) were isolated by the formation of neurospheres under neurosphere conditions (using neurobasal medium) from the murine SMA 560 glioma cell line or from freshly isolated human glioblastoma cells.
The number of remaining adherent cells were stained (crystal violet or Alamar Blue) and quantified by absorbance measurements (540 nm). Cell survival was expressed as the percentage of cells surviving relative to the number of cells surviving in untreated control cultures. The results are given as % killing rate or EC50 as the dose required for half-maximal cytotoxicity. Results
CSCs were isolated from glioblastoma tissue resected from four patients. […].

[4] = Half-life in human fresh blood in vitro by GC; type: in vitro ADME; conditions: same test, human blood
[5] = test system: multicellular pancreatic tumor (Panc Tul or BxPC-3) spheroids; assay: Pancreatic stem cell-like multicellular spheroid toxicity assay; type: cell-based; conditions: taurolidine 500 μM, compound 2250 1000 μM, 48 hours
From the text: Multicellular spheroids are composed of tumor cells growing in a 3-dimensional structure stimulating the growth, micro-environmental conditions and stem cell-like characteristics of real tumors. The multicellular tumor spheroid (MCTS) model compensates for many of the deficiencies seen in monolayer cultures. Spheroids on the scale of 200-500 μm develop chemical gradients of oxygen, nutrients, and catabolites, while having morphological and functional features similar to tumors. Therefore, assays utilizing the MCTS model allow for the assessment of drug penetration and are more predictive of in vivo success compared with monolayer cultures. MCTS assays are a tumor model system of intermediate complexity between standard monolayer and tumors in vivo.
Pancreatic tumor cells (Panc Tu-1, BxPC-3, Mia Paca-2, ASPC1) and pancreatic primary tumor cells (Bo80) were seeded in ultra-low adhesion plates in special stem cell media.
Pancreatic tumor cells (ASPC1, Mia Paca-2, Panc Tul, BxPC-3) and pancreatic primary tumor cells (Bo80) were raised in monolayer culture before seeding in ultra low adhesion plates under conditions of special stem cell media to form multicellular spheroids and passed through a cell strainer to exclude aggregates. […]

MiaPaca2 tumor = assay: MiaPaca2 subcutaneous tumor model in nude mice; type: in vivo, nude mice (NMRI-Foxn1 nu/nu); conditions: 500 mg/kg i.p. on alternating days
PancTu I tumor = assay: PancTu I subcutaneous tumor model in nude mice; type: in vivo, nude mice (NMRI-Foxn1 nu/nu); conditions: 500 mg/kg i.p. on alternating days
[6] = test system: pancreatic primary tumors (Bo 73); assay: Xenograft model of pancreatic primary tumors Bo 73; type: in vivo; conditions: Bo 73, observed for 15 days; differences not statistically relevant
From the text: (§1) However, the differences in tumor volumes were not statistically relevant, likely due to the short duration of the study and the slow growth rate of the tumors.

[7] = test system: pancreatic primary tumors (Bo 70); assay: Xenograft model of pancreatic primary tumors Bo 70; type: in vivo; conditions: Bo 70, observed for 23 days
From the text: as §1

tumor stem cells = assay: Killing of tumor stem cells in tissue culture in vitro; type: cell-based
[8] = test system: murine SMA560 glioma cancer stem cells (CSC); conditions: for sensitivity of CSCs versus corresponding glioma bulk cells, based on EC50: mouse SMA 560 CSCs vs bulk cells
From the text: (§2) The mouse SMA560 glioma cell line was used to provide tumor bulk cells and CSCs. […] Mouse CSCs were generated from the SMA560 glioma cell line and cultured for 7 days.

[9] = test system: human glioblastoma bulk cells; conditions: Rodak et al., J. Neurosurg., 102, 1055-68, 2005; cited from earlier work
[10] = Toxicity in mice during the tumor study; conditions: 500 mg/kg i.p. on alternating days
Experimental: 1×10^7 tumor cells (PancTu-I and MiaPaca 2) were injected subcutaneously into the flank.
Tumors were grown to a size of 200 mm^3 before the treatment was started. Mice were treated on alternating days with 500 mg/kg*body weight (BW).

[11] = test system: murine SMA 560 bulk glioma cells; conditions: SMA 560 bulk cells, 24 h and 48 h incubation
From the text: as §2

[12] = Portnow et al., Clin Cancer Res 15, 7092-7098, 2009; cited from earlier work

Compound: O=S1(=O)CCNCO1 [A1]
- effectiveness in treating cancers in patients [1]: effective in treating such cancers
- safety for use in patients [1]: safe for use in patients

Compound: O=S1(=O)CCOCO1 [A3]
- effectiveness in treating cancers in patients [1]: effective in treating such cancers
- safety for use in patients [1]: safe for use in patients

Compound: O=S1(=O)CCN(CN2COCCS2(=O)=O)CN1 [B1]
- effectiveness in treating cancers in patients [1]: effective in treating such cancers
- safety for use in patients [1]: safe for use in patients

Compound: O=S1(=O)CCN(CN2CCS(=O)(=O)OC2)CN1 [B2]
- effectiveness in treating cancers in patients [1]: effective in treating such cancers
- safety for use in patients [1]: safe for use in patients

Compound: O=S1(=O)CCN(CN2CCS(=O)(=O)OC2)CO1 [B3]
- effectiveness in treating cancers in patients [1]: effective in treating such cancers
- safety for use in patients [1]: safe for use in patients

Compound: O=S1(=O)CCOCN1CN1COCCS1(=O)=O [compound 2245]
- effectiveness in treating cancers in patients [1]: effective in treating such cancers
- safety for use in patients [1]: safe for use in patients

Compound: CN1COCCS1(=O)=O [compound 2255]
- effectiveness in treating cancers in patients [1]: effective in treating such cancers
- safety for use in patients [1]: safe for use in patients

Compound: O=S1(=O)CCN(CN2CCS(=O)(=O)NC2)CN1 [taurolidine]
- OD (absorbance at 540 nm; high values = high cell viability) ([2]; 4 μg/ml): 1.530
- OD (absorbance at 540 nm; high values = high cell viability) ([2]; 8 μg/ml): 1.478
- OD (absorbance at 540 nm; high values = high cell viability) ([2]; 15.5 μg/ml): 1.434
- OD (absorbance at 540 nm; high values = high cell viability) ([2]; 31 μg/ml): 1.132
- OD (absorbance at 540 nm; high values = high cell viability) ([2]; 62.5 μg/ml): 0.317
- OD (absorbance at 540 nm; high values = high cell viability) ([2]; 250 μg/ml): 0.165
- OD (absorbance at 540 nm; high values = high cell viability) ([2]; 500 μg/ml): 0.098
- OD (absorbance at 540 nm; high values = high cell viability) ([2]; 1000 μg/ml): 0.109
- EC50 ([2]; Homo sapiens, LN-229, 24 h, LN-229 cells, 24 h incubation, read-out: EC50 (concentration inducing 50% cell death)): 45 µg/mL (≈ 158 µM)
- EC50 (concentration inducing 50% cell death) ([2]; LN-229 cells, 24 h incubation): 50 µg/mL (≈ 176 µM)
- EC50 ([3]; Homo sapiens, 24 h, read-out: Cytotoxicity EC50 (μg/ml) 24 h, CSC GBM #4, 24 h): 12.5 µg/mL
- EC50 ([3]; Homo sapiens, 24 h, read-out: Cytotoxicity EC50 (μg/ml) 24 h, CSC GBM #5, 24 h): 14 µg/mL
- EC50 ([3]; Homo sapiens, 24 h, read-out: Cytotoxicity EC50, Mean ± SD, mean of CSCs from four glioblastoma patients, 24 h): 13 ± 2 µg/mL
- EC50 ([3]; Homo sapiens, GBM3, 24 h, read-out: Cytotoxicity EC50 (μg/ml) 24 h, CSC GBM #3, 24 h): 15 µg/mL
- EC50 ([3]; Homo sapiens, GBM6, 24 h, read-out: Cytotoxicity EC50 (μg/ml) 24 h, CSC GBM #6, 24 h): 10 µg/mL
- half-life [4]: ~30 min
- effect on pancreatic stem cell like multicellular spheroid cultures [5]: antineoplastic effect
- decrease of MiaPaca2 tumor volume compared to control (MiaPaca2 tumor): about 2 fold
- decrease of PancTu I tumor volume compared to control (PancTu I tumor): about 3 fold
- relative tumor volume compared to control [6]: slightly reduced relative tumor volume compared to control
- tumor volume compared to control [7]: significantly reduce tumor volume compared to control
- concentration effective at killing tumor stem cells (tumor stem cells): 0.01 µg/mL
- sensitivity of CSCs versus corresponding glioma bulk cells, based on EC50 [8]: about 3 fold
- EC50 [9]: ~50 µg/mL (≈ 176 µM)
- toxic effect on the mice during the study [10]: no toxic effect

Compound: O=S1(=O)CCNCN1 [taurultam]
- Cytotoxicity EC50 (μg/ml) 24 h ([3]; CSC GBM #3, 24 h): 10.5 µg/mL
- Cytotoxicity EC50 (μg/ml) 24 h ([3]; CSC GBM #4, 24 h): 12.5 µg/mL
- Cytotoxicity EC50 (μg/ml) 24 h ([3]; CSC GBM #5, 24 h): 11 µg/mL
- Cytotoxicity EC50 (μg/ml) 24 h ([3]; CSC GBM #6, 24 h): 9 µg/mL
- Cytotoxicity EC50, Mean ± SD ([3]; 24 h): 11 ± 1.4 µg/mL
- Cytotoxicity EC50, Mean ± SD ([3]; 24 h, listed as Taurultam): 11 ± 1.4 µg/mL
- Cytotoxicity EC50 [11]: 19.3 µg/mL
- sensitivity of CSCs versus corresponding glioma bulk cells, based on EC50 [8]: ~2 fold
- Cytotoxicity EC50 ([8]; murine CSCs cultured 7 days, 24 hours treatment): 10 µg/mL
- EC50 [9]: ~50 µg/mL (≈ 367 µM)

Compound: Cn1nnc2c(C(N)=O)ncn2c1=O [temozolamide]
- Cytotoxicity EC50 (μg/ml) 24 h ([3]; CSC GBM #3, 24 h): 84.4 µg/mL
- EC50 ([3]; CSC GBM #3, 24 h, read-out: Cytotoxicity EC50 24 h): 435 µM
- Cytotoxicity EC50 (μg/ml) 24 h ([3]; CSC GBM #4, 24 h): 97 µg/mL
- EC50 ([3]; CSC GBM #4, 24 h, read-out: Cytotoxicity EC50 24 h): 500 µM
- Cytotoxicity EC50 (μg/ml) 24 h ([3]; CSC GBM #5, 24 h): 48.5 µg/mL
- EC50 ([3]; CSC GBM #5, 24 h, read-out: Cytotoxicity EC50 24 h): 250 µM
- Cytotoxicity EC50 (μg/ml) 24 h ([3]; CSC GBM #6, 24 h): 44 µg/mL
- EC50 ([3]; CSC GBM #6, 24 h, read-out: Cytotoxicity EC50 24 h): 230 µM
- Cytotoxicity EC50, Mean ± SD ([3]; 24 h): 68.5 ± 26 µg/mL
- peak plasma levels measured in patients [12]: 13.7 µg/mL
